The target of test [1] is T1, Zinc finger protein mex-5 (Caenorhabditis elegans, UniProt Q9XUB2).
T1 sequence (Q9XUB2 whole entry): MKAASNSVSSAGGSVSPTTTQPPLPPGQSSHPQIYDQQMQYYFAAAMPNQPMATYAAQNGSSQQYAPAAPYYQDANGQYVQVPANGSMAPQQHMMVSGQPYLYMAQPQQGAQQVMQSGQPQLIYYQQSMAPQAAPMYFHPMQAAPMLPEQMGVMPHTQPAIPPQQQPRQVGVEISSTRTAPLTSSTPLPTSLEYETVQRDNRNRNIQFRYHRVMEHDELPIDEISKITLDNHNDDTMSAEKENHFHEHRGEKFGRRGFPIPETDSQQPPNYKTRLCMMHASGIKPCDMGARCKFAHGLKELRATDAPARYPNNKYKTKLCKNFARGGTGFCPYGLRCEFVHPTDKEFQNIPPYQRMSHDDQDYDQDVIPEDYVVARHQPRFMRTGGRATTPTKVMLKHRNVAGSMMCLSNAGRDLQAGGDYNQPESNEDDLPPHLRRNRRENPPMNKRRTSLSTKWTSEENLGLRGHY
The test is described as follows: MEX-5/TCR-2 RNA interaction inhibitors, dose response, biochemical, C. elegans, fluorescence polarization (AID 1960).

Test [2] has as its target Genome polyprotein (dengue virus type 2, UniProt P29990). As to the kind of experiment: Dengue-2 NS5 methyltransferase inhibitors, primary screen, biochemical, confirmation dose response (AID 588689). The class given is functional.
The target in test [3] is Small ubiquitin-related modifier 1 (Homo sapiens, UniProt P63165). The test is described as follows: inhibitors of SUMO1 partner interactions, dose response, biochemical, FRET (AID 624383). The class given is functional. The note with it: read-out: IC50_Mean.
Test [4] concerns the target T2, Caspase-3 (Homo sapiens, UniProt P42574).
T2 sequence (P42574 whole entry): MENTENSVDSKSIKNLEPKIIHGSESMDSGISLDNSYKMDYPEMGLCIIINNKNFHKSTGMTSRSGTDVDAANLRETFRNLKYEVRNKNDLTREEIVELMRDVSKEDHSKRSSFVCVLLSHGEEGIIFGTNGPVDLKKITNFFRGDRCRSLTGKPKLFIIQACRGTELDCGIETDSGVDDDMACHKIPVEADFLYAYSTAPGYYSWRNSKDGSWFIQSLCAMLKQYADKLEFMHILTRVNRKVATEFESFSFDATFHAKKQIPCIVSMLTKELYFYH
As to the kind of experiment: caspase-3 enzyme inhibitors, selectivity check, dose response, selectivity assay for caspase-6 allosteric inhibitor project, biochemical, fluorescence, cherry-picked samples (AID 743291).

For test [5], the target named is T3, Protein RecA (Mycobacterium tuberculosis, UniProt P9WHJ3).
T3 sequence (P9WHJ3 whole entry): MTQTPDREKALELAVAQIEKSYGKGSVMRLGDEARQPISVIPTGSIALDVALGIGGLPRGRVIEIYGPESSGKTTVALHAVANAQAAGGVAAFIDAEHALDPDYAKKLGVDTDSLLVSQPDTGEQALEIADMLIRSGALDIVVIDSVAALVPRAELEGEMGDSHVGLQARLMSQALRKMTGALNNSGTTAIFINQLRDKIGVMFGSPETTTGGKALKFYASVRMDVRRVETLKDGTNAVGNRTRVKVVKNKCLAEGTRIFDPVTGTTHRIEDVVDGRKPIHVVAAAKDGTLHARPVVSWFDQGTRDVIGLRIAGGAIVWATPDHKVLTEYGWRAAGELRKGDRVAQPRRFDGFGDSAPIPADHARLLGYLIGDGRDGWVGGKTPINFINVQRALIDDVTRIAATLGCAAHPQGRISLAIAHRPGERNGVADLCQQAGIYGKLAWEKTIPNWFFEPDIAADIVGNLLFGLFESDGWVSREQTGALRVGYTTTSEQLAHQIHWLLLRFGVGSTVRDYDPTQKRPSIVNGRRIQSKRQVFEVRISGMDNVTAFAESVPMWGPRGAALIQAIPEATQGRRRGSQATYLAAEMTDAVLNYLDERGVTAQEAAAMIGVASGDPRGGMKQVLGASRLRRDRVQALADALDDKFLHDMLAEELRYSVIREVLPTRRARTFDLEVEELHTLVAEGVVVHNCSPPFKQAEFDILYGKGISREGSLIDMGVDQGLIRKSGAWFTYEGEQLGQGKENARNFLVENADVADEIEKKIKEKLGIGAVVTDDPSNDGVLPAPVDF
The test is described as follows: GFP-RecA MOA-DTT Measured in Biochemical System Using Plate Reader - 2047-05_Inhibitor_Dose_DryPowder_Activity. [Related pubchem assays (depositor defined):AID2223]. On the set-up: species or system Mycobacterium tuberculosis H37Rv.

The nature of test [6]: cytotoxicity in HEK-293T cells, dose response, cytotoxicity control for TCR NF-kB inhibitor project, luminescence, T-cell screen hits (AID 489026).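 Also: cells exposed to compound about 14 hours before the viability readout.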 Type of test: functional, cell-based.
Test [7] can be described thus: Intein inhibitors as potential Tuberculosis drugs, a cytotoxicity screen. [Related pubchem assays (depositor defined):AID2221, AID2223, AID434968, AID435010, AID449749, AID449750, AID489010]. The class given is functional.
Test [8] in a line: HepG2 cell cytotoxicity, dose response, cytotoxicity control, plate reader, cherry-pick, antagonist series (AID 743416). The class given is functional, cell-based.
For test [9], the target named is Tyrosyl-DNA phosphodiesterase 2 (Homo sapiens, UniProt O95551). As to the kind of experiment: human TDP2 enzyme inhibitors, dose response, biochemical, epi absorbance, IC50 (AID 743297).
Test [10] deals with Caspase-8 (Homo sapiens, UniProt Q14790). As to the kind of experiment: caspase-8 inhibition counter-screen, dose response, selectivity assay for caspase-6 inhibitor project, biochemical, Z-IETD-R110 fluorescence, cherry-picked samples (AID 743294). Background: A counterscreen serves to expose hits that act by an unwanted route or on another target.
Test [11] in a line: C. albicans growth with fluconazole, confirmation, fluorescence, retest (AID 2467). Type of test: functional, cell-based.
In test [12] the target is ATP-dependent molecular chaperone HSP82 (Candida albicans (strain WO-1) (Yeast), UniProt C4YTQ8). As to the kind of experiment: loss of DOC-induced GRE-beta-galactosidase reporter signal, dose response, Hsp90 inhibitor project, S. cerevisiae, luminescence (AID 2400).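 Also: beta-galactosidase luminescence from glucocorticoid response element reporter as proxy for Hsp90 function; inhibitor potency where signal loss means Hsp90 inhibition.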 Type of test: functional, cell-based.
Test [13] deals with Cytochrome P450 2C19 (Homo sapiens, UniProt P33261). The test is described as follows: Cytochrome panel assay with activity outcomes. Panel member name: p450-cyp2c19 Compounds with AC50 equal or less than 10 uM are considered active. The class given is functional. The conditions noted are these: read-out: AC50.
For test [14], the target named is T4, Galanin receptor type 3 (Homo sapiens, UniProt O60755).
T4 sequence (O60755 whole entry): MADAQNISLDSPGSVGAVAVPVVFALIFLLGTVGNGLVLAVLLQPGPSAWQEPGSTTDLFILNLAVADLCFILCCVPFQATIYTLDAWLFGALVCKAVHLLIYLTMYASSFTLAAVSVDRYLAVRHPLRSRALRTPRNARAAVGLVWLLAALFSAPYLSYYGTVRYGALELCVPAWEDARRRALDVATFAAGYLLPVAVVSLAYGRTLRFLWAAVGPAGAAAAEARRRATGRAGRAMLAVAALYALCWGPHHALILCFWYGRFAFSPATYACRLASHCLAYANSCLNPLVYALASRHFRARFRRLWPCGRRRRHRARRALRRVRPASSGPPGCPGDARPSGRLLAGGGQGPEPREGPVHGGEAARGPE
As to the kind of experiment: Fluorescence-based cell-based primary high throughput dose response assay to identify antagonists of the Galanin Receptor 3 (GalR3). Type of test: functional.

Test [15] can be described thus: inhibitors of clade B AD8 Env fusion, dose response, cell-based, cherry-pick (AID 652062).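 Also: luciferase signal from cell-cell fusion driven by HIV-1 clade B AD8 Env; potency is for inhibitors of fusion seen as a drop in luminescence.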 Type of test: functional.

The text below walks through data of ChEMBL document CHEMBL1201862, “PubChem BioAssay data set” (2004).

Each structure is given as a SMILES string. The source made the active and inactive calls.
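For CC50 in this document: cells exposed to compound for 72 hours before luminescence readout.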

Caspase-8, sequence (Q14790 217-374 limits assumed): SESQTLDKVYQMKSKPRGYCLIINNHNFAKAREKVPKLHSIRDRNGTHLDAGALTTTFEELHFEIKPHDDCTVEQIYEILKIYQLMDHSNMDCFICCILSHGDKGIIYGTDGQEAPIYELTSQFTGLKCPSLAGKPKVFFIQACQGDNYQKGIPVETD
Caspase-8, sequence (Q14790 385-479 limits assumed): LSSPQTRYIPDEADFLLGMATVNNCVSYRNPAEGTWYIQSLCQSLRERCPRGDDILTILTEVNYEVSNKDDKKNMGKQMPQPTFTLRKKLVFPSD
Small ubiquitin-related modifier 1, sequence (P63165 whole entry): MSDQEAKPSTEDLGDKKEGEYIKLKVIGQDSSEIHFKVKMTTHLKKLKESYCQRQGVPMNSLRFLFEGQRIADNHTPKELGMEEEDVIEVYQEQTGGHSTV
Cytochrome P450 2C19, sequence (P33261 whole entry): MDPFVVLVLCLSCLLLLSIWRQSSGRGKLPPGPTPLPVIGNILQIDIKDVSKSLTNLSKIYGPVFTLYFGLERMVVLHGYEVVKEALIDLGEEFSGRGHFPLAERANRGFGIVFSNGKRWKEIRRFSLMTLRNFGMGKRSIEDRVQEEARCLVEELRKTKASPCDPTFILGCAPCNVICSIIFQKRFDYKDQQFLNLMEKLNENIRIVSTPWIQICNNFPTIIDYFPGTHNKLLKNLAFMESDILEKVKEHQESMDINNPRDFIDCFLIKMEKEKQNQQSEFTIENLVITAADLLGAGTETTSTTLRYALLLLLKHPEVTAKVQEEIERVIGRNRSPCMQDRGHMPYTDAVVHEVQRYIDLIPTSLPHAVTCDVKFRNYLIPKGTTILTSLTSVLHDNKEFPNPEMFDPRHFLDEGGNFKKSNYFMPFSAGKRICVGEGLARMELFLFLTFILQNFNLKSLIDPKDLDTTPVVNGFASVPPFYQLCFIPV
Genome polyprotein, sequence (P29990 2492-3391 limits assumed): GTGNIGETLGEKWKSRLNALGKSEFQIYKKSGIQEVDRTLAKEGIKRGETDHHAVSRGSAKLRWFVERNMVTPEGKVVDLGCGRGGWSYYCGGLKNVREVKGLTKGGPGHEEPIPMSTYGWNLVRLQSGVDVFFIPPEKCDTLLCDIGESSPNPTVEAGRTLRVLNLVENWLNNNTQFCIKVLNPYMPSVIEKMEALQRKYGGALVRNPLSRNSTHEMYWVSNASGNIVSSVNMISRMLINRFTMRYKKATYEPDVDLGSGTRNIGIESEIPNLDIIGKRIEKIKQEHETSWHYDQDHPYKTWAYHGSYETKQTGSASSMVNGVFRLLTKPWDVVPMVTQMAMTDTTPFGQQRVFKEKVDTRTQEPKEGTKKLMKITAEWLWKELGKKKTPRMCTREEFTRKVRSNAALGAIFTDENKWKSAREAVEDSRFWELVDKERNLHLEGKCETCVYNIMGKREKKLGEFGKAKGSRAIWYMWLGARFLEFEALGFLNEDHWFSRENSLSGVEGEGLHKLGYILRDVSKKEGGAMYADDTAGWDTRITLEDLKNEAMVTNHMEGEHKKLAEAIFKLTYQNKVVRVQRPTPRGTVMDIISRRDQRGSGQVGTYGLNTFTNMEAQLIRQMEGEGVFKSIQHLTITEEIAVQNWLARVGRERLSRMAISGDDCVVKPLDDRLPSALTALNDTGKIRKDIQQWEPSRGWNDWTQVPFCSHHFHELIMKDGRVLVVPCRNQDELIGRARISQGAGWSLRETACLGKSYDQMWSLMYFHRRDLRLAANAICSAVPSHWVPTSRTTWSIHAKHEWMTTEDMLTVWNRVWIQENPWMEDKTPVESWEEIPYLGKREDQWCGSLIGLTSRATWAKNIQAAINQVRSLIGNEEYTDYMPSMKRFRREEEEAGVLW
Tyrosyl-DNA phosphodiesterase 2, sequence (O95551 whole entry): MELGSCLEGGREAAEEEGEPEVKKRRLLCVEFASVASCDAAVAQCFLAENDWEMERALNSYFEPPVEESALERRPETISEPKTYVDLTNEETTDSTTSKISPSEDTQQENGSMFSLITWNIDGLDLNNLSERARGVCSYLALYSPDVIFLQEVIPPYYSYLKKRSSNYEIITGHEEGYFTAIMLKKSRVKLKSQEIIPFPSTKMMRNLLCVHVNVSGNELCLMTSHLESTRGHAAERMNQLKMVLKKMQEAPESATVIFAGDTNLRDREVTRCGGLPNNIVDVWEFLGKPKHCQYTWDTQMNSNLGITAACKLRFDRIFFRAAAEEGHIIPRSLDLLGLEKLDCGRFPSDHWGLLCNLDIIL
ATP-dependent molecular chaperone HSP82, sequence (C4YTQ8 whole entry): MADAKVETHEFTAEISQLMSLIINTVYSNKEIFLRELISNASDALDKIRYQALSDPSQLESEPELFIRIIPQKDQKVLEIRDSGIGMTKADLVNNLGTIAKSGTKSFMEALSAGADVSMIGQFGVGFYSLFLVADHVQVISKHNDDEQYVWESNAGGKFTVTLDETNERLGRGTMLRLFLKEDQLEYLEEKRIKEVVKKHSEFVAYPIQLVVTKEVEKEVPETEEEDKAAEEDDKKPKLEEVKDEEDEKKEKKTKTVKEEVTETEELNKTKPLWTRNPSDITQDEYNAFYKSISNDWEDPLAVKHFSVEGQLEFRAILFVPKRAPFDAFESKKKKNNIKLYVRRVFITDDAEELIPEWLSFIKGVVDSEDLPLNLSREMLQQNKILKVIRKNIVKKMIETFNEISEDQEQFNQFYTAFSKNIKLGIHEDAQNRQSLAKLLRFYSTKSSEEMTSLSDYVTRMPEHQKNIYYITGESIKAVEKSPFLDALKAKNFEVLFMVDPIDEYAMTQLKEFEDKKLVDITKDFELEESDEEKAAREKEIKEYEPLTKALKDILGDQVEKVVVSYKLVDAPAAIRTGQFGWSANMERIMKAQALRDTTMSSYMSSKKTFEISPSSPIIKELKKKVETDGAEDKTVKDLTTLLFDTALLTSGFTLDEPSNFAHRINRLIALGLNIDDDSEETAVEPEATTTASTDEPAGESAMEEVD

As for `COc1ccc(NS(=O)(=O)c2ccc3c(c2)[C@H]2C=CC[C@H]2[C@@H](c2ccc(C(=O)O)cc2)N3)cc1`, the concentration giving a half-maximal response (EC50) (in general, the concentration that produces a half-maximal response) in test [1] is 7.88 µM (active). Besides, the IC50 in test [2] is 44.3 µM (active); in test [3], 24.5 µM (inactive). For the same compound, in test [4], the half-maximal activity concentration (AC50) (in general, the concentration giving half of the maximal activity seen) is 18.2 µM (active).

On to `Cn1nc(-c2ccccn2)nc2c(=O)n(C)c(=O)nc1-2`, for which the half-maximal activity concentration (AC50) was 0.143 µM (active) in test [5], 2.42 µM (active) in test [8], 0.436 µM (active) in test [10] and 6.73 µM (active) in test [4]. In addition, the results for the IC50 in test [6] and in test [9] were 4.26 µM (active) and 0.21 µM (active), respectively. Moreover, the half-maximal cytotoxic concentration (CC50) (in general, the concentration giving 50% cytotoxicity) in test [7] is > 40 µM (active).

For the compound `CCC(=O)NC(c1ccc(OC)cc1)c1cc(Cl)c2cccnc2c1O` (centres undefined), the EC50 in [11] was 0.769 µM (active); in test [12] it was > 160 µM (inactive).

Regarding `CCCCCCCCCCn1c2c(c(=N)c3c1CCC3)CCC2`, the concentration for a half-maximal effect (EC50) in test [11] is 0.779 µM (active). The IC50 is 38.4 µM (inactive) in [6] and > 1.11 µM (active) in test [14]. Moreover, in test [7], the CC50 is 8.51 µM (active). The AC50 in test [13] is 28.2 µM (inconclusive); in test [15] it was 0.726 µM (active).
